Among the data in US10933063B2 (priority 2017, dated 2021) are IC50 values, retold here.

This assay addresses BTK (Homo sapiens (Human), UniProt Q06187). In words: biochemical.

BTK, sequence (Q06187 whole entry, looked up, species assumed): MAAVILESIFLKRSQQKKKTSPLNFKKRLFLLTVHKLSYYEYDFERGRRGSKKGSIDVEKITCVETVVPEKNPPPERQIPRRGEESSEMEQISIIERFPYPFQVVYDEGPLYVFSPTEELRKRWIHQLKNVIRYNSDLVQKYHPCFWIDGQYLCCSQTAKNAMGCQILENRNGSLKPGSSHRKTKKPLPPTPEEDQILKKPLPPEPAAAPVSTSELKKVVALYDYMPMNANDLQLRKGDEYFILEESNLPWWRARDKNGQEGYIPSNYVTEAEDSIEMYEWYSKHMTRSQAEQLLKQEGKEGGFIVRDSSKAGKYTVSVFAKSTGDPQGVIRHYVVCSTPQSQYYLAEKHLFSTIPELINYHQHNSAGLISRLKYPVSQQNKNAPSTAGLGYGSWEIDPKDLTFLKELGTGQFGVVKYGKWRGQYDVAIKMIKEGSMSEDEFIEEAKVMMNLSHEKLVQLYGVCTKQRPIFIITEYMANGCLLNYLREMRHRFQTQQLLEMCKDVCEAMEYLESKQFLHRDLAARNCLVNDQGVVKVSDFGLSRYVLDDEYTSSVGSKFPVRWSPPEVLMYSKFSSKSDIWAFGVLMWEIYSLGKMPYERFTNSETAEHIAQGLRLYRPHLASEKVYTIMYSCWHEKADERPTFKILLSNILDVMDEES
Description: Btk kinase activity was determined using a homogenous time resolved fluorescence (HTRF) methodology. Measurements were performed in a reaction volume of 15 μL using 384-well assay plates. Kinase enzyme, inhibitor, ATP and 1 μM peptide substrate were incubated in a reaction buffer compose of Hepes50 mM (pH7.0), NaN3 0.02%, BSA 0.01%, Orthocanadate 0.1 mM. […] For each compound, enzyme activity as measured at various concentrations of compound, Negative control reactions were performed in the absence of inhibitor in two replicates and eight no enzyme controls were used to determine baseline fluorescence levels.

`COc1cccc(Oc2ccc(-c3nc([C@@H]4CCCN(C(=O)/C(C#N)=C/C(C)(C)C)C4)n4ccncc34)cc2)c1F` [Example 2, (R,E)-2-(3-(1-(4-(2-Fluoro-3-methoxyphenoxy)phenyl)imidazo[1,5-a]pyrazin-3-yl)piperidine-1-carbonyl)-4,4-dimethylpent-2-enenitrile] yielded an IC50 of 0.01 to 0.1 µM. For the molecule `COc1cccc(Oc2ccc(-c3nc([C@@H]4CCCN(C(=O)C(N)=O)C4)n4ccncc34)cc2)c1F` [Example 3, (R)-2-(3-(1-(4-(2-fluoro-3-methoxyphenoxy)phenyl)imidazo[1,5-a]pyrazin-3-yl)piperidin-1-yl)-2-oxoacetamide], the IC50 was 1 to 10 µM. The molecule `C=CC(=O)N1CCC[C@H]1c1nc(-c2ccc(Oc3ccccc3)nc2)c2cnccn12` [Example 4, (S)-1-(2-(1-(6-Phenoxypyridin-3-yl)imidazo[1,5-a]pyrazin-3-yl)pyrrolidin-1-yl)prop-2-en-1-one] showed an IC50 of 0.1 to 1 µM. Then `CC#CC(=O)N1CCC[C@H]1c1nc(-c2ccc(Oc3cccc(F)c3)cc2)c2cnccn12` [Example 7, (S)-1-(2-(1-(4-(3-fluorophenoxy)phenyl)imidazo[1,5-a]pyrazin-3-yl)pyrrolidin-1-yl)but-2-yn-1-one], with 0.01 to 0.1 µM; and `C=CC(=O)N1CCC[C@H]1c1nc(-c2ccc(Oc3ccc(OC)cc3)cc2)c2cnccn12` [Example 9, (S)-1-(2-(1-(4-(4-methoxyphenoxy)phenyl)imidazo[1,5-a]pyrazin-3-yl)pyrrolidin-1-yl)prop-2-en-1-one], with 0.01 to 0.1 µM; and `C=CC(=O)N1CCC[C@H]1c1nc(-c2ccc(Oc3cccc(C)c3)cc2)c2cnccn12` [Example 10, (S)-1-(2-(1-(4-(m-tolyloxy)phenyl)imidazo[1,5-a]pyrazin-3-yl)pyrrolidin-1-yl)prop-2-en-1-one], with 0.01 to 0.1 µM.

As for `C=CC(=O)N1CCC[C@H]1c1nc(-c2ccc(Oc3cccc(F)c3)cc2)c2cnccn12` [Example 11, (S)-1-(2-(1-(4-(3-fluorophenoxy)phenyl)imidazo[1,5-a]pyrazin-3-yl)pyrrolidin-1-yl)prop-2-en-1-one], the IC50 was in the range of 0.01 to 0.1 µM. With `C=CC(=O)N1CCC[C@H]1c1nc(-c2ccc(Oc3cccc(C)c3C)cc2)c2cnccn12` [Example 12, (S)-1-(2-(1-(4-(2,3-dimethylphenoxy)phenyl)imidazo[1,5-a]pyrazin-3-yl)pyrrolidin-1-yl)prop-2-en-1-one] the figure was 0.01 to 0.1 µM; with `C=CC(=O)N1CCC[C@H]1c1nc(-c2ccc(Oc3ccccc3)cc2Cl)c2cnccn12` [Example 13, (S)-1-(2-(1-(2-chloro-4-phenoxyphenyl)imidazo[1,5-a]pyrazin-3-yl)pyrrolidin-1-yl)prop-2-en-1-one], 0.01 to 0.1 µM. Then `CC#CC(=O)N1CCC[C@H]1c1nc(-c2ccc(Oc3ccccc3)cc2Cl)c2cnccn12` [Example 14, (S)-1-(2-(1-(2-chloro-4-phenoxyphenyl)imidazo[1,5-a]pyrazin-3-yl)pyrrolidin-1-yl)but-2-yn-1-one], with 1 to 10 µM. Then `CC#CC(=O)N1CCC[C@H]1c1nc(-c2ccc(Oc3cccc(OC)c3C)cc2)c2cnccn12` [Example 21, (S)-1-(2-(1-(4-(3-methoxy-2-methylphenoxy)phenyl)imidazo[1,5-a]pyrazin-3-yl)pyrrolidin-1-yl)but-2-yn-1-one], with 0.1 to 1 µM; and `C=CC(=O)N1CCC[C@H]1c1nc(-c2ccc(Oc3ccccc3OC)cc2)c2cnccn12` [Example 23, (S)-1-(2-(1-(4-(2-methoxyphenoxy)phenyl)imidazo[1,5-a]pyrazin-3-yl)pyrrolidin-1-yl)prop-2-en-1-one], with 0.01 to 0.1 µM; and `CC#CC(=O)N1CCC[C@H]1c1nc(-c2ccc(Oc3ccccc3OC)cc2)c2cnccn12` [Example 24, (S)-1-(2-(1-(4-(2-methoxyphenoxy)phenyl)imidazo[1,5-a]pyrazin-3-yl)pyrrolidin-1-yl)but-2-yn-1-one], with 1 to 10 µM. Consider `CC#CC(=O)N1CCCC[C@H]1c1nc(-c2ccc(Oc3cccc(OC)c3F)cc2)c2cnccn12` [Example 25, (S)-1-(2-(1-(4-(2-fluoro-3-methoxyphenoxy)phenyl)imidazo[1,5-a]pyrazin-3-yl)piperidin-1-yl)but-2-yn-1-one], for which the IC50 was in the range of 0.01 to 0.1 µM. With `C=CC(=O)N1CCC[C@H]1c1nc(-c2ccc(Oc3ccccc3)c(Cl)c2)c2cnccn12` [Example 26, (S)-1-(2-(1-(3-chloro-4-phenoxyphenyl)imidazo[1,5-a]pyrazin-3-yl)pyrrolidin-1-yl)prop-2-en-1-one] the figure was 0.01 to 0.1 µM; with `COc1cccc(Oc2ccc(-c3nc([C@@H]4CCCN4C(=O)/C(C#N)=C/C(C)(C)C)n4ccncc34)cc2)c1F` [Example 31, (S,E)-2-(2-(1-(4-(2-fluoro-3-methoxyphenoxy)phenyl)imidazo[1,5-a]pyrazin-3-yl)pyrrolidine-1-carbonyl)-4,4-dimethylpent-2-enenitrile], 0.1 to 1 µM. Take `COc1cccc(Oc2ccc(-c3nc([C@@H]4CCCN4Cc4ccccc4)n4ccncc34)cc2)c1F` [Example 32, (S)-3-(1-benzylpyrrolidin-2-yl)-1-(4-(2-fluoro-3-methoxyphenoxy)phenyl)imidazo[1,5-a]pyrazine]: the IC50 fell in the range of 1 to 10 µM. `COc1cccc(Oc2ccc(-c3nc([C@@H]4CCCN4C(=O)C(N)=O)n4ccncc34)cc2)c1F` [Example 33]: the IC50 lay within 1 to 10 µM. With `CC#CC(=O)N1CCC[C@H]1c1nc(-c2ccc(Oc3cccc(OC)c3F)cc2)c2cnccn12` [Example 34, (S)-1-(2-(1-(4-(2-fluoro-3-methoxyphenoxy)phenyl)imidazo[1,5-a]pyrazin-3-yl)pyrrolidin-1-yl)but-2-yn-1-one] the figure was 0.01 to 0.1 µM. Then `CC#CC(=O)N1CCC[C@H]1c1nc(-c2ccc(Oc3cccc(OC)c3F)cc2)c2c(O)nccn12` [Example 35, (S)-1-(2-(1-(4-(2-fluoro-3-methoxyphenoxy)phenyl)-8-hydroxyimidazo[1,5-a]pyrazin-3-yl)pyrrolidin-1-yl)but-2-yn-1-one], with 1 to 10 µM; and `C=CC(=O)N1CCC[C@H]1c1nc(-c2ccc(Oc3cccc(OC)c3F)cc2)c2c(O)nccn12` [Example 36, (S)-1-(2-(1-(4-(2-fluoro-3-methoxyphenoxy)phenyl)-8-hydroxyimidazo[1,5-a]pyrazin-3-yl)pyrrolidin-1-yl)prop-2-en-1-one], with 0.01 to 0.1 µM; and `C=CC(=O)N1CCC[C@H]1c1nc(-c2ccc(Oc3cccc(OC)c3F)cc2)c2c(C(N)=O)nccn12` [Example 37, (S)-3-(1-acryloylpyrrolidin-2-yl)-1-(4-(2-fluoro-3-methoxyphenoxy)phenyl)imidazo[1,5-a]pyrazine-8-carboxamide], with 1 to 10 µM. On to `CC#CC(=O)N1CCC[C@H]1c1nc(-c2ccc(Oc3cccc(OC(C)C)c3)cc2)c2cnccn12` [Example 39, (S)-1-(2-(1-(4-(3-isopropoxyphenoxy)phenyl)imidazo[1,5-a]pyrazin-3-yl)pyrrolidin-1-yl)but-2-yn-1-one], for which the IC50 lay in the range of 0.1 to 1 µM. Molecule `CC#CC(=O)N1CCCC[C@H]1c1nc(-c2ccc(Oc3cccc(C)c3)cc2)c2c(C)nccn12` [Example 41, (S)-1-(2-(8-methyl-1-(4-(m-tolyloxy)phenyl)imidazo[1,5-a]pyrazin-3-yl)piperidin-1-yl)but-2-yn-1-one] returned an IC50 of 0.01 to 0.1 µM. `C=CC(=O)N1CCCC[C@H]1c1nc(-c2ccc(Oc3cccc(Cl)c3F)cc2)c2c(C)nccn12` [Example 42, (S)-1-(2-(1-(4-(3-chloro-2-fluorophenoxy)phenyl)-8-methylimidazo[1,5-a]pyrazin-3-yl)piperidin-1-yl)prop-2-en-1-one] yielded an IC50 of 0.01 to 0.1 µM. Then `CC#CC(=O)N1CCCC[C@H]1c1nc(-c2ccc(Oc3cccc(Cl)c3F)cc2)c2c(C)nccn12` [Example 43, (S)-1-(2-(1-(4-(3-chloro-2-fluorophenoxy)phenyl)-8-methylimidazo[1,5-a]pyrazin-3-yl)piperidin-1-yl)but-2-yn-1-one], with 0.01 to 0.1 µM; and `C=CC(=O)N1CCCC[C@H]1c1nc(-c2ccc(Oc3cccc(F)c3)cc2)c2cnccn12` [Example 45, (S)-1-(2-(1-(4-(3-fluorophenoxy)phenyl)imidazo[1,5-a]pyrazin-3-yl)piperidin-1-yl)prop-2-en-1-one], with 0.01 to 0.1 µM. As for `CC#CC(=O)N1CCCC[C@H]1c1nc(-c2ccc(Oc3cccc(Cl)c3F)cc2)c2cnccn12` [Example 47, (S)-1-(2-(1-(4-(3-chloro-2-fluorophenoxy)phenyl)imidazo[1,5-a]pyrazin-3-yl)piperidin-1-yl)but-2-yn-1-one], the IC50 is 0.1 to 1 µM. In turn, `CC#CC(=O)N1CCCC[C@H]1c1nc(-c2ccc(Oc3cccc(OC)c3)cc2)c2c(C)nccn12` [Example 49, (S)-1-(2-(1-(4-(3-methoxyphenoxy)phenyl)-8-methylimidazo[1,5-a]pyrazin-3-yl)piperidin-1-yl)but-2-yn-1-one] displayed a 50% inhibitory concentration (IC50) of 0.01 to 0.1 µM.

With `C=CC(=O)N1CCCC[C@H]1c1nc(-c2ccc(Oc3cccc(C)c3)cc2)c2cnccn12` [Example 50, (S)-1-(2-(1-(4-(m-tolyloxy)phenyl)imidazo[1,5-a]pyrazin-3-yl)piperidin-1-yl)prop-2-en-1-one], the half-inhibitory concentration (IC50) is 0.01 to 0.1 µM. Then `CC#CC(=O)N1CCC[C@@H](c2nc(-c3ccc(Oc4cccc(OC)c4)cc3)c3cnccn23)C1` [Example 52, (R)-1-(3-(1-(4-(3-methoxyphenoxy)phenyl)imidazo[1,5-a]pyrazin-3-yl)piperidin-1-yl)but-2-yn-1-one], with 0.1 to 1 µM; and `CC#CC(=O)N1CCCC[C@H]1c1nc(-c2ccc(Oc3cccc(F)c3)cc2)c2c(C)nccn12` [Example 56, (S)-1-(2-(1-(4-(3-fluorophenoxy)phenyl)-8-methylimidazo[1,5-a]pyrazin-3-yl)piperidin-1-yl)but-2-yn-1-one], with 0.01 to 0.1 µM; and `CC#CC(=O)N1CCC[C@H]1c1nc(-c2ccc(Oc3cccc(OC)c3F)cc2)c2c(C)nccn12` [Example 57, (S)-1-(2-(1-(4-(2-fluoro-3-methoxyphenoxy)phenyl)-8-methylimidazo[1,5-a]pyrazin-3-yl)pyrrolidin-1-yl)but-2-yn-1-one], with 0.01 to 0.1 µM. Then `C=CC(=O)N1CCCC[C@H]1c1nc(-c2ccc(Oc3cccc(OC)c3)cc2)c2cnccn12` [Example 58, (S)-1-(2-(1-(4-(3-methoxyphenoxy)phenyl)imidazo[1,5-a]pyrazin-3-yl)piperidin-1-yl)prop-2-en-1-one], with 0.01 to 0.1 µM.

In general, IC50 refers to the concentration needed to halve the response being measured. Read a high IC50 as weaker potency.
